Like-named read-outs stand apart in the source and are kept apart here.
Key:
[1] = test system: Mycobacterium tuberculosis strain H37Rv ΔctaE-ΔqcrCAB; assay: microbe, parasite or virus in culture; assay type: cell-based; conditions: 240 h
[2] = test system: Mycobacterium tuberculosis (strain H37Ra), cyt bd; conditions: Mtb H37Ra; for (i) % OCR after cyt bd inhibitor: test compound 10 μM added after Compound X 0.9 μM; for (ii) % OCR after cccp: test compound 10 μM after Compound X 0.9 μM, then CCCP 1 μM
[3] = test system: Mitochondrial toxicity (Glu/Gal); assay: Mitochondrial toxicity (Glu/Gal) assay; assay type: cell-based; design: key to Score: “negative” means that in the test, it was found to have low mitotoxicity (and hence no mitotoxicity alerts); “positive” means that there were some mitotoxicity alerts; “inconclusive” means that no accurate conclusion could be drawn; conditions: for Score: mitotoxicity score; for Δ IC50,glu/IC50,gal: ratio glu/gal
Source text: The compounds of the invention/examples may have advantages associated with in vitro potency, kill kinetics (i.e. bactericidal effect) in vitro, PK properties, food effect, safety/toxicity (including liver toxicity, coagulation, 5-LO oxygenase), metabolic stability, Ames II negativity, MNT negativity, aqueous based solubility (and ability to formulate) and/or cardiovascular effect e.g. on animals (e.g. anesthetized guinea pig). The data below that was generated/calculated may be obtained using standard methods/assays, for instance that are available in the literature or which may be performed by a supplier (e.g. Microsomal Stability Assay—Cyprotex, Mitochondrial toxicity (Glu/Gal) assay—Cyprotex, as well as literature CYP cocktail inhibition assays).

[4] = galactose medium, read-out: IC50, gal
[5] = glucose medium, read-out: IC50, glu

Row | SMILES | IC50 [1] | (i) % OCR after cyt bd inhibitor [2] | (ii) % OCR after cccp [2] | IC50 [3, 4] | IC50 [3, 5] | Score [3] | Δ IC50,glu/IC50,gal [3]
1 | Cc1c(-c2nc3ccc(OC(F)(F)F)cn3n2)[nH]c2ccccc2c1=O [Compound 30] | 2.92 µM | 93.8% | 120.2% | 100 µM | 100 µM | negative | [x]0
2 | CN(C)C(=O)c1c(-c2nc3ccc(-c4ccc(OC(F)(F)F)cc4)cn3n2)[nH]c2ccccc2c1=O [Compound 31] | > 50 µM | 68.97% | 120.39% | 76 µM | 200 µM | inconclusive | [x]2.63
3 | Cc1c(-c2nc3cc(Br)ccn3n2)[nH]c2ccccc2c1=O [Compound 39] | > 100 µM | 110.6% | 133.8% | 100 µM | 100 µM | negative | [x]0
4 | COc1cc2nc(-c3[nH]c4ccccc4c(=O)c3C)nn2cc1F [Compound 40] | > 100 µM | 95.33% | 134.33% | 200 µM | 200 µM | negative | [x]0
5 | O=c1c(Br)c(-c2nc3ccc(-c4ccc(OC(F)(F)F)cc4)cn3n2)[nH]c2ccccc12 [Compound 41] | 33.9 µM | 84.09% | 137.15% | 54.7 µM | 53.9 µM | negative | [x]0.99
6 | Cc1c(-c2cn3ccc(-c4ccc(OC(F)(F)F)cc4)cc3n2)[nH]c2ccccc2c1=O [Compound 42] | 30.7 µM | 80.1% | 137.9% | 200 µM | 200 µM | negative | –
7 | COc1ccc2[nH]c(-c3nc4ccc(-c5ccc(OC(F)(F)F)cc5)cn4n3)c(C)c(=O)c2c1 [Compound 43] | > 100 µM | 109.2% | 138% | 10.6 µM | 26.3 µM | inconclusive | [x]2.48
8 | Cc1c(-c2nc3ccc(-c4cnc(C(F)(F)F)s4)cn3n2)[nH]c2ccccc2c1=O [Compound 45] | 5.96 µM | 94.41% | 138.84% | 20 µM | 20 µM | negative | [x]0
9 | Cc1c(-c2nc3cc(C(F)(F)F)c(Br)cn3n2)[nH]c2ccccc2c1=O [Compound 46] | > 50 µM | 91.4% | 140.4% | 100 µM | 100 µM | negative | [x]0
10 | Cc1c(-c2nc3ccc(Br)cn3n2)[nH]c2c(F)cc(F)cc2c1=O [Compound 57] | > 50 µM | 102% | 149.2% | 100 µM | 100 µM | negative | [x]0
11 | Cc1c(-c2nc3ccc(-c4c[nH]nn4)cn3n2)[nH]c2ccccc2c1=O [Compound 60] | > 50 µM | 114.505% | 155.065% | 100 µM | 100 µM | negative | [x]0
12 | O=c1cc(-c2nc3ccc(-c4ccc(OC(F)(F)F)cc4)cn3n2)[nH]c2ccccc12 [Compound 65] | > 10 µM | 99.86% | 158.97% | 20 µM | 20 µM | negative | [x]0
13 | Cc1c(Cc2nc3ccc(-c4ccc(OC(F)(F)F)cc4)cn3n2)[nH]c2ccccc2c1=O [Compound 67] | 10.3 µM | 99.28% | 161.97% | 0.39 µM | 30 µM | positive | [x]76.87
14 | COc1ccc2[nH]c(-c3nc4ccc(Br)cn4n3)c(C)c(=O)c2c1 [Compound 68] | > 100 µM | 129.7% | 164.4% | 100 µM | 100 µM | negative | [x]0
15 | Cc1c(-c2nc3ccc(-c4ccccc4)cn3n2)[nH]c2ccccc2c1=O [Compound 72] | 0.261 µM | 99.84% | 169.69% | 100 µM | 100 µM | negative | [x]0
16 | COc1cc2[nH]c(-c3nc4ccc(Br)cn4n3)c(C)c(=O)c2cc1OC [Compound 73] | > 100 µM | 105.2% | 171.2% | 100 µM | 100 µM | negative | [x]0
17 | Cc1c(-c2nc3ccc(Cl)cn3n2)[nH]c2ccccc2c1=O [Compound 74] | > 100 µM | 86.4% | 173.3% | 121 µM | 135 µM | negative | [x]l.ll
18 | Cc1c(-c2nc3ccc(OCC(F)(F)F)cn3n2)[nH]c2ccccc2c1=O [Compound 77] | 1.85 µM | 110.77% | 175.26% | 200 µM | 200 µM | negative | [x]0
19 | COc1ccc2[nH]c(-c3nc4ccc(-c5ccc(OC(F)(F)F)cc5)cn4n3)c(C)c(=O)c2c1Cl [Compound 80] | > 25 µM | 122.15% | 180.98% | 50 µM | 50 µM | negative | [x]0
20 | Cc1c(-c2nc3ccc(-c4cnn(CC(F)(F)F)c4)cn3n2)[nH]c2ccccc2c1=O [Compound 81] | 16.7 µM | 98.58% | 182.7% | 200 µM | 200 µM | negative | [x]0
21 | Cc1nnc(-c2ccc3nc(-c4[nH]c5ccccc5c(=O)c4C)nn3c2)s1 [Compound 82] | > 5 µM | 96.77% | 186.45% | 50 µM | 50 µM | negative | [x]0
22 | Cc1cc(F)cc(-c2ccc3nc(-c4[nH]c5ccccc5c(=O)c4C)nn3c2)c1 [Compound 86] | 1.32 µM | 32,57% | 39,44% | 50 µM | 50 µM | negative | [x]0
23 | COc1cc(OC)cc(-c2ccc3nc(-c4[nH]c5ccccc5c(=O)c4C)nn3c2)c1 [Compound 87] | 0.548 µM | 33,23% | 38,98% | 5.16 µM | 6.2 µM | inconclusive | [x]1.21
24 | COc1ccc(-c2ccc3nc(-c4[nH]c5ccccc5c(=O)c4C)nn3c2)cc1 [Compound 90] | 1.49 µM | 25,77% | 30,69% | 200 µM | 200 µM | negative | [x]0
25 | Cc1cc(-c2ccc3nc(-c4[nH]c5ccccc5c(=O)c4C)nn3c2)ccc1F [Compound 110] | 3.78 µM | 40,37% | 51,51% | 200 µM | 200 µM | negative | [x]0
26 | Cc1ccc(-c2ccc3nc(-c4[nH]c5ccccc5c(=O)c4C)nn3c2)cc1F [Compound 124] | 1.69 µM | 31,72% | 37,02% | 200 µM | 200 µM | negative | [x]0
27 | COc1cc(F)cc(-c2ccc3nc(-c4[nH]c5ccccc5c(=O)c4C)nn3c2)c1 [Compound 125] | 0.664 µM | 45,66% | 64,44% | 200 µM | 200 µM | negative | [x]0
28 | Cc1c(-c2nc3ccc(-c4cc(F)cc(C(F)(F)F)c4)cn3n2)[nH]c2ccccc2c1=O [Compound 126] | 10.8 µM | 43,71% | 51,74% | 15.5 µM | 25 µM | inconclusive | [x]1.61
29 | Cc1c(-c2nc3ccc(-c4cccc(CC(F)(F)F)c4)cn3n2)[nH]c2ccccc2c1=O [Compound 127] | 3.23 µM | 49,62% | 65,3% | 15.8 µM | 18.1 µM | negative | [x]1.14
